Holding throughout (assay type): cell-based
The target in assay [1] is T1, endogenous GLP-1 receptors (Mus musculus, UniProt O35659).
T1 construct: Agonistic activity of the test compounds on endogenous GLP-1 receptors; endogenous in cells
T1 sequence (O35659 22-463): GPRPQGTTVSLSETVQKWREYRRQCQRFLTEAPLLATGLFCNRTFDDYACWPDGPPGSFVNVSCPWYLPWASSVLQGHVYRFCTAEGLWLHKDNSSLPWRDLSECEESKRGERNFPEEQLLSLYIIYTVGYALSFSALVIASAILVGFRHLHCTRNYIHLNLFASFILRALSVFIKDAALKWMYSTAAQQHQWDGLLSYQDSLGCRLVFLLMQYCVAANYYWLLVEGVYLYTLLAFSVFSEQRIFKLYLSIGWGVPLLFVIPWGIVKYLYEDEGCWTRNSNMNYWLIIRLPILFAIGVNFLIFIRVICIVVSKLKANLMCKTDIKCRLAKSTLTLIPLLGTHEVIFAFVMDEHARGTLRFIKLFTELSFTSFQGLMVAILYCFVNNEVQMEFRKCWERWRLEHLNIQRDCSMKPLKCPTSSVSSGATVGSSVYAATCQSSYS
Kind of assay: Agonistic activity on endogenous GLP-1 receptor, cAMP in murine insulinoma cell line. The note with it: intracellular cAMP. On the procedure: Agonistic activity of the test compounds on endogenous GLP-1 receptors was determined using a murine insulinoma cell line. Intracellular cAMP was used as an indicator of receptor activation.
Cells were cultured for 24 h at a density of 10,000 cells/well in a 384-well plate. Medium was removed and 10 μL KRBH buffer (NaCl 130 mM, KCl 3.6 mM, NaH2PO4 0.5 mM, MgSO4 0.5 mM, CaCl2 1.5 mM) containing test compound or GLP-1 (at increasing concentrations from 0.1 pM to 100 nM) or solvent control (0.1% (v/v) DMSO) was added to the wells for 15 minutes at a temperature of 26° C.
The cellular cAMP content is measured using the AlphaScreen cAMP Functional Assay Kit (Perkin Elmer). Measurement was performed using the Envision (PerkinElmer) according to manufacturer's recommendations.
All measurements were performed in quadruplicate.
The resulting cAMP curves were plotted as absolute cAMP concentrations (nM) over log (test compound concentration) and analyzed using the curve fitting program XLfit.

In assay [2] the target is T2, human glucagon receptor (Glucagon-R) (Homo sapiens, UniProt P47871).
T2 construct: expressed in transfected cells
T2 sequence (P47871 26-477): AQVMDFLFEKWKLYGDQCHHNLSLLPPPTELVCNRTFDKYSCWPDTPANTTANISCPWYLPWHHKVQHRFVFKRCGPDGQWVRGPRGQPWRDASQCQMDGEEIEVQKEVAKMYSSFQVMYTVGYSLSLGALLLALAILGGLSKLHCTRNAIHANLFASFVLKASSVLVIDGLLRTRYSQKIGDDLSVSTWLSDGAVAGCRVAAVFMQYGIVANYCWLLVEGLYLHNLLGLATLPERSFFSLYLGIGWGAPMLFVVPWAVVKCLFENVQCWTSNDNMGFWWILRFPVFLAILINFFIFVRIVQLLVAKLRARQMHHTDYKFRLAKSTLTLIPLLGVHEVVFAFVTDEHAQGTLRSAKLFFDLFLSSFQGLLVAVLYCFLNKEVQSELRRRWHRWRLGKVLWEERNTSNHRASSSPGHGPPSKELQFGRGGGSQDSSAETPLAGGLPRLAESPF
Kind of assay: Glucagon receptor efficacy assay (cAMP AlphaScreen, CHO cells). Conditions: cAMP formation, CHO cells expressing human Glucagon-R; read-out: EC50 hGCGR CHO-K1. On the procedure:
The mammalian expression vectors encoding the Glucagon-R or the GLP-1-R were transfected into Chinese hamster ovary (CHO) cells by the Attractene method. Stably expressing clones were obtained by Zeocin selection (250 μg/mL) upon limited dilution of cells resistant to the selection pressure. […] One Glucagon-R expressing clone and one GLP-1-R expressing clone were chosen for compound profiling.
CHO cells expressing the human Glucagon-R, or human GLP-1-R were seeded 24 hours prior to the assay at 30,000 cells per well in 96-well microtiter plates in culture in 100 μl growth medium. On the day of analysis, growth medium was removed and the cells were washed once with 200 μl of assay buffer (Krebs-Ringer-buffer—KRBH). The buffer was removed and the cells were incubated for 15 min at room temperature in 10 μl KRBH (KRBH+10 mM HEPES, 5 mM NaHCO3, 0.1% (V/V) BSA) with 0.1 mM IBMX in deionized water containing increasing concentrations of test peptides. The reaction was stopped by the addition of lysis buffer (0.1% w/v BSA, 5 mM HEPES, 0.3% v/v Tween-20). After cell lysis for 10 min at room temperature, lysates were transferred to 384-well plates and 10 μl of acceptor/donorbead mixture as contained in the AlphaScreen™ cAMP Functional Assay Kit was added. After one hour of incubation at room temperature in the dark, the cAMP content was determined applying the AlphaScreen™ cAMP Functional Assay Kit from Perkin-Elmer according to manufacturer instructions. […] The GLP-1/glucagon ratio is calculated as defined earlier.

Assay [3] concerns the target T3, human glucagon-like peptide 1 receptor (GLP-1R) (Homo sapiens, UniProt P43220).
T3 construct: expressed in transfected cells
Kind of assay: GLP-1 receptor efficacy assay (cAMP AlphaScreen, CHO cells). The note with it: EC50 [GLP-1R] / EC50 [Glucagon-R], human receptors in CHO-K1. A digest of the protocol: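 Stably transfected CHO clones expressing human receptor, stimulated 15 min at room temperature with increasing peptide concentrations in KRBH (10 mM HEPES, 5 mM NaHCO3, 0.1% BSA) plus 0.1 mM IBMX. Cells lysed, and cAMP quantified by AlphaScreen after 1 h bead incubation in the dark.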

Starred links: 1 amine or outer side, 2 acyl side, 3 side chain; linkers in the order of their positions; H or OH if unused. Non-standard residues stand in square brackets, D forms with d. Residues, ends and D or L forms follow the SMILES beside them. Groups on a side chain read outwards from the residue. *: point of attachment. γGlu = O=C(O)[C@H](CCC(=O)[*:2])N[*:1]; Palmitoyl = CCCCCCCCCCCCCCCC(=O)*; Ac4c = NC1(C(=O)O)CCC1

T3 sequence (P43220 24-463): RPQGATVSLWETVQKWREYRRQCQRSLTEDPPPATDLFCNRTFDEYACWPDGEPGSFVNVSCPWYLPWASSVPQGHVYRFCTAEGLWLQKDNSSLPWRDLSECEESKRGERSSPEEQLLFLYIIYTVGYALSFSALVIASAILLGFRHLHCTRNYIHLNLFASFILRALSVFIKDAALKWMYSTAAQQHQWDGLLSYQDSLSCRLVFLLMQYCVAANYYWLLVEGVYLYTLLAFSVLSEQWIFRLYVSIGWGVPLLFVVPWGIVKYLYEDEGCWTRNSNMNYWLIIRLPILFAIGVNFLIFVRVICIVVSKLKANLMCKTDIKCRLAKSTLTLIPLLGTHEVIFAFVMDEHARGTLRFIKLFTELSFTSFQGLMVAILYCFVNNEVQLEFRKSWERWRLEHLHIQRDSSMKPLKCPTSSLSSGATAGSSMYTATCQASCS

Take `CCCCCCCCCCCCCCCC(=O)N[C@@H](CCC(=O)NCCCC[C@H](NC(=O)[C@H](CO)NC(=O)[C@H](CC(=O)O)NC(=O)[C@H](CC(C)C)NC(=O)[C@H](Cc1ccc(O)cc1)NC(=O)[C@H](CCCCN)NC(=O)[C@H](CO)NC(=O)[C@H](Cc1ccc(O)cc1)NC(=O)[C@H](CC(=O)O)NC(=O)[C@H](CO)NC(=O)[C@@H](NC(=O)[C@H](Cc1ccccc1)NC(=O)[C@@H](NC(=O)CNC(=O)[C@H](Cc1c[nH]cn1)NC(=O)C1(NC(=O)[C@@H](N)Cc2c[nH]cn2)CCC1)[C@@H](C)O)[C@@H](C)O)C(=O)N[C@@H](C)C(=O)N[C@@H](C)C(=O)N[C@@H](Cc1c[nH]cn1)C(=O)N[C@@H](CC(=O)O)C(=O)N[C@@H](Cc1ccccc1)C(=O)N[C@H](C(=O)N[C@@H](CCC(=O)O)C(=O)N[C@@H](Cc1c[nH]c2ccccc12)C(=O)N[C@@H](CC(C)C)C(=O)N[C@@H](CC(C)C)C(=O)N[C@@H](CO)C(=O)N[C@@H](C)C(N)=O)C(C)C)C(=O)O` [Compound 9] (H-H[Ac4c]HGTFTSDYSKYLDSK([γGlu-Palmitoyl])AAHDFVEWLLSA-NH2): the values for the EC50 in assay [1] and in assay [2] were 0.21 nM and 0.2 nM, respectively. Further, the “Ratio GLP-1/Glucagon” value in assay [3] is on record as 1.65.

The values above are taken from patent US9988429B2, “Glucagon analogues” (Zealand Pharma A/S, priority 2013, dated 2018).
